US11352322B2, “Cyclopropyl-amide compounds as dual LSD1/HDAC inhibitors” (Jubilant Epicore LLC, priority 2016, dated 2022)
Structures can show the parent of a compound that is named as a salt. Where two headings read alike, the source gives them in different places.

Experiments:
[1] = test system: MM1S; experiment: Anticancer activity: Alamar Blue assay, MM1S; format: cell-based; conditions: Homo sapiens, MM1.S, read-out: MM1S EC50
[2] = biological target: HDAC6 human recombinant enzyme (Homo sapiens (Human), UniProt Q9UBN7); experiment: Histone Deacetylase Assay (BPS Biosciences), HDAC6; format: biochemical
Text: Histone Deacetylase Assay (BPS Biosciences)
Histone deacetylase assay was done as per manufacturer's instructions.

[3] = biological target: LSD1 (Homo sapiens (Human), UniProt O60341); experiment: TR-FRET Assay for LSD1; conditions: read-out: LSD1 IC50
Method: TR-FRET Assay for LSD1 (Perkin Elmer)
Tranylcypromine (TCP), LSD1 inhibitor was procured from Selleckchem. […] Stop Solution containing 300 μM tranylcypromine in 1× LANCE Detection Buffer was added to the wells and incubated for 5 min at RT. Then, Detection mix containing 2 nM Eu-Ab and 50 nM ULight-Streptavidin in 1× LANCE Detection Buffer was prepared and added to the reaction mix. This mixture was incubated for 1 hour at room temperature.

[4] = Metabolic stability in liver microsomes, HLM; conditions: 1 μM, NADPH
Method: (§1) The microsomal suspension was prepared by adding liver microsomes to 100 mM potassium phosphate buffer (pH7.4) to give a final protein concentration of 0.5 mg/mL. The stock solution of NCE (10 mM in DMSO) was added to the microsomes to provide a final concentration of 1 μM. […] Samples were vortexed and centrifuged at 5,000 rpm for 10 min to remove proteins. Supernatant were analyzed on LC-MS/MS.

[5] = Metabolic stability in liver microsomes, MLM; conditions: 1 μM, NADPH
Method: as §1

HDAC6 human recombinant enzyme, sequence (Q9UBN7 whole entry): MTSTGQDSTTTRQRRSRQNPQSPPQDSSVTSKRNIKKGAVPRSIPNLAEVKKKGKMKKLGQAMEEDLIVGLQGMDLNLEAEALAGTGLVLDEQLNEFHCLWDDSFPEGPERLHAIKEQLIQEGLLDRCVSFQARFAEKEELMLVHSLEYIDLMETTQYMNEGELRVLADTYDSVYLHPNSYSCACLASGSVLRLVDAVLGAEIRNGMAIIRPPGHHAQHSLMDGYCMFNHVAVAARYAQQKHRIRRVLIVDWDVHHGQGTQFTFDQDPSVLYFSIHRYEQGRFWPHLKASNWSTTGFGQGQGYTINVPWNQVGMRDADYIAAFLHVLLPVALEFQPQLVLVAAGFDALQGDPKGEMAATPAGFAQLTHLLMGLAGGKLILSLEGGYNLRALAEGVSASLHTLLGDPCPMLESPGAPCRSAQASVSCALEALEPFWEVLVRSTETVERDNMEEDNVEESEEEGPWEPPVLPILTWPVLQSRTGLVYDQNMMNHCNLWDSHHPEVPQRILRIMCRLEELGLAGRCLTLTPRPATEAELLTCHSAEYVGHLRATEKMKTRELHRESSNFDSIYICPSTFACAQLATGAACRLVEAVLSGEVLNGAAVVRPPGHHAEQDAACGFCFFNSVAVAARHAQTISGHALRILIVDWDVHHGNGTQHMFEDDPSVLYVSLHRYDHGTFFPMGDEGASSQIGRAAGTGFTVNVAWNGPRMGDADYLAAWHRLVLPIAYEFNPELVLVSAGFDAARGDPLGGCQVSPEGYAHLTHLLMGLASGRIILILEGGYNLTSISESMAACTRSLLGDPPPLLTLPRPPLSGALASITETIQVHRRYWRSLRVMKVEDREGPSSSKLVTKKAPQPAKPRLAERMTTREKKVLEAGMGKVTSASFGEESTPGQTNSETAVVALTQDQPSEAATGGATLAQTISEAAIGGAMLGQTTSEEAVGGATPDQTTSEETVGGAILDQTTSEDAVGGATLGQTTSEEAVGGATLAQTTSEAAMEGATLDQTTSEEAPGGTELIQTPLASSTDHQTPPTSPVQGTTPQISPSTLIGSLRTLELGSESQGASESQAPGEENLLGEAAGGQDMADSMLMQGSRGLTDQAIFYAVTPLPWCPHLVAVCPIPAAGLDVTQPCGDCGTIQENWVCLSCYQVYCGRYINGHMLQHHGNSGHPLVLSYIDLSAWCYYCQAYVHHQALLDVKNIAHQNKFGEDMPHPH

Row | EC50 ([1]; MM1S cells) [nM] | IC50 [2] [nM] | IC50 [3] [nM] | Structure (SMILES) | Metabolic stability HLM % remaining in 30 min [4] [%] | EC50 [1] [nM] | Metabolic stability MLM % remaining in 30 min [5] [%]
1 | 12 | 134 | 95 | O=C(NO)c1cnc(N2CCC(CNC3CC3c3ccc(-c4ccc(F)cc4)cc3)CC2)nc1 (stereo not shown) [Example 15, 2-(4-(((2-(4′-fluoro-[1,1′-biphenyl]-4-yl)cyclopropyl)amino)methyl)piperidin-1-yl)-N-hydroxypyrimidine-5-carboxamide TFA Salt] |  |  | 
2 |  | > 1000 | 2250 | O=C(NO)C1CCC(NC2CC2c2ccccc2)CC1 (stereo not shown) [Example 33, 4-(2-Phenyl-cyclopropylamino)-cyclohexanecarboxylic Acid Hydroxyamide TFA Salt] |  |  | 
3 | 1430 | 199 | 34 | Cn1cc(-c2ccc(C3CC3NCC3CCN(Cc4ccc(C(=O)NO)cc4)CC3)cc2)ccc1=O (stereo not shown) [Example 35, N-hydroxy-4-((4-(((2-(4-(1-methyl-6-oxo-1,6-dihydropyridin-3-yl)phenyl)cyclopropyl)amino)methyl)piperidin-1-yl)methyl)benzamide TFA Salt] |  |  | 
4 |  | 74 | 319 | O=C(NO)c1ccc(Cn2cc(CNC3CC3c3ccccc3)nn2)cc1 (stereo not shown) [Example 41, N-hydroxy-4-((4-(((2-phenylcyclopropyl)amino)methyl)-1H-1,2,3-triazol-1-yl)methyl)benzamide TFA Salt] |  |  | 
5 | 190 | 490 | 15 | O=C(NO)c1ccc(CCN2CCC(CNC3CC3c3ccccc3)CC2)cc1 (stereo not shown) [Example 42, N-hydroxy-4-(2-(4-(((2-phenylcyclopropyl)amino)methyl)piperidin-1-yl)ethyl)benzamide TFA Salt] |  |  | 
6 | 70 | 272 | 484 | CC(C)n1cc(C2CC2NCC2CCN(CCCc3ccc(C(=O)NO)cc3)CC2)cn1 (stereo not shown) [Example 67, N-hydroxy-4-(3-(4-(((2-(1-isopropyl-1H-pyrazol-4-yl)cyclopropyl)amino)methyl)piperidin-1-yl)propyl)benzamide TFA Salt] |  |  | 
7 | 246 | 365 | 286 | O=C(NO)c1ccc(CCCn2cnc(CNC3CC3c3ccccc3)c2)cc1 (stereo not shown) [Example 75, N-hydroxy-4-(3-(4-(((2-phenylcyclopropyl)amino)methyl)-1H-imidazol-1-yl)propyl) benzamide TFA Salt] |  |  | 
8 | 42 | 22 | 84 | O=C(NO)c1ccc(CCCn2cc(CNC3CC3c3ccccc3)cn2)cc1 (stereo not shown) [Example 76, N-hydroxy-4-(3-(4-(((2-phenylcyclopropyl)amino)methyl)-1H-pyrazol-1-yl)propyl)benzamide TFA Salt] |  |  | 
9 | 70 | 71 | 65 | O=C(NO)c1ccc(CCCn2cc(CNC3CC3c3ccccc3)nn2)cc1 (stereo not shown) [Example 77, N-hydroxy-4-(3-(4-(((2-phenylcyclopropyl)amino)methyl)-1H-1,2,3-triazol-1-yl)propyl)benzamide TFA Salt] |  |  | 
10 | > 10000 | 575 | 62 | O=C(NO)c1ccc(S(=O)(=O)N2CCC(CNC3CC3c3ccccc3)CC2)cc1 (stereo not shown) [Example 85, N-hydroxy-4-((4-(((2-phenylcyclopropyl)amino)methyl)piperidin-1-yl)sulfonyl)benzamide TFA Salt] |  |  | 
11 | 9110 | 1060 | 25 | O=C(NO)c1ccc(S(=O)(=O)NCCN2CCC(CNC3CC3c3ccc(F)cc3)CC2)cc1 (stereo not shown) [Example 87, 4-(N-(2-(4-(((2-(4-fluorophenyl)cyclopropyl)amino)methyl)piperidin-1-yl)ethyl)sulfamoyl)-N-hydroxybenzamide TFA Salt] |  |  | 
12 | 311 | 720 | 20 | O=C(NO)c1ccc(C(=O)NCCN2CCC(CNC3CC3c3ccccc3)CC2)cc1 (stereo not shown) [Example 89, N-hydroxy-N4-(2-(4-(((2-phenylcyclopropyl)amino)methyl)piperidin-1-yl)ethyl)terephthalamide TFA Salt] |  |  | 
13 | 1040 | 187 | 72 | O=C(NO)c1ccc(CCCC2CCN(C(=O)CNC3CC3c3ccccc3)CC2)cc1 (stereo not shown) [Example 93, N-hydroxy-4-(3-(1-(2-((2-phenylcyclopropyl)amino)acetyl)piperidin-4-yl)propyl)benzamide TFA Salt] |  |  | 
14 | > 10000 | > 10000 | 33 | O=C(NO)c1ccc(OCCN2CCC(CNC3CC3c3ccccc3)CC2)nc1 (stereo not shown) [Example 97, N-hydroxy-6-(2-(4-(((2-phenylcyclopropyl)amino)methyl)piperidin-1-yl)ethoxy)nicotinamide TFA Salt] |  |  | 
15 | > 10000 | 5960 | 37 | O=C(NO)c1ccc(OCCN2CCC(CNC3CC3c3ccc(-c4ccc(F)cc4)cc3)CC2)nc1 (stereo not shown) [Example 98, 6-(2-(4-(((2-(4′-fluoro-[1,1′-biphenyl]-4-yl)cyclopropyl)amino)methyl)piperidin-1-yl)ethoxy)-N-hydroxynicotinamide TFA Salt] |  |  | 
16 | 1100 | 107 | 24 | O=C(NO)c1ccc2c(c1)CN(C(=O)CCCN1CCC(CNC3CC3c3ccccc3)CC1)C2 (stereo not shown) [Example 109, N-hydroxy-2-(4-(4-(((2-phenylcyclopropyl)amino)methyl)piperidin-1-yl)butanoyl)isoindoline-5-carboxamide TFA Salt] |  |  | 
17 | 63 | 517 | 22 | O=C(NO)c1cnc(CCCN2CCC(CNC3CC3c3ccccc3)CC2)s1 (stereo not shown) [Example 112, N-hydroxy-2-(3-(4-(((2-phenylcyclopropyl)amino)methyl)piperidin-1-yl)propyl)thiazole-5-carboxamide TFA Salt] |  |  | 
18 | 70 | > 10000 | 128 | CC(C)n1cc(C2CC2NCC2CCN(CCCc3ccc(C(=O)Nc4ccccc4N)cc3)CC2)cn1 (stereo not shown) [Example 128, N-(2-aminophenyl)-4-(3-(4-(((2-(1-isopropyl-1H-pyrazol-4-yl)cyclopropyl)amino)methyl)piperidin-1-yl)propyl)benzamide TFA Salt] |  |  | 
19 | 126 | > 10000 | 139 | Nc1ccccc1NC(=O)c1ccc(CCCn2cc(CNC3CC3c3ccccc3)nn2)cc1 (stereo not shown) [Example 137, N-(2-aminophenyl)-4-(3-(4-(((2-phenylcyclopropyl)amino)methyl)-1H-1,2,3-triazol-1-yl)propyl)benzamide TFA Salt] |  |  | 
20 | 65 | > 10000 | 99 | Nc1ccccc1NC(=O)c1ccc(CCCn2cc(CNC3CC3c3ccccc3)cn2)cc1 (stereo not shown) [Example 138, N-(2-aminophenyl)-4-(3-(4-(((2-phenylcyclopropyl)amino)methyl)-1H-pyrazol-1-yl)propyl)benzamide TFA Salt] |  |  | 
21 | 123 | > 10000 | 61 | Nc1ccccc1NC(=O)c1ccc(Cn2cc(CNC3CC3c3ccccc3)cn2)cc1 (stereo not shown) [Example 145, N-(2-aminophenyl)-4-((4-(((2-phenylcyclopropyl)amino)methyl)-1H-pyrazol-1-yl)methyl)benzamide TFA Salt] |  |  | 
22 | 106 | > 10000 | 69 | Nc1ccccc1NC(=O)c1ccc(Cn2cc(CNC3CC3c3ccccc3)nn2)cc1 (stereo not shown) [Example 146, N-(2-aminophenyl)-4-((4-(((2-phenylcyclopropyl)amino)methyl)-1H-1,2,3-triazol-1-yl)methyl)benzamide TFA Salt] |  |  | 
23 | > 10000 | > 10000 | 21 | Nc1ccccc1NC(=O)c1ccc(OCCN2CCC(CNC3CC3c3ccc(F)cc3)CC2)nc1 (stereo not shown) [Example 149, N-(2-aminophenyl)-6-(2-(4-(((2-(4-fluorophenyl)cyclopropyl)amino)methyl)piperidin-1-yl)ethoxy)nicotinamide TFA Salt] |  |  | 
24 | 571 | > 10000 | 24 | Nc1ccccc1NC(=O)c1coc(CCCN2CCC(CNC3CC3c3ccccc3)CC2)n1 (stereo not shown) [Example 153, N-(2-aminophenyl)-2-(3-(4-(((2-phenylcyclopropyl)amino)methyl)piperidin-1-yl)propyl)oxazole-4-carboxamide TFA Salt] |  |  | 
25 | 178 | > 10000 | 43 | Nc1ccccc1NC(=O)c1ccc(S(=O)(=O)N2CCC(CNC3CC3c3ccccc3)CC2)cc1 (stereo not shown) [Example 160, N-(2-aminophenyl)-4-((4-(((2-phenylcyclopropyl)amino)methyl)piperidin-1-yl)sulfonyl)benzamide TFA Salt] |  |  | 

Row | Structure (SMILES) | EC50 ([1]; MM1S cells) [nM] | IC50 [2] [nM] | IC50 [3] [nM] | Metabolic stability HLM % remaining in 30 min [4] [%] | EC50 [1] [nM] | Metabolic stability MLM % remaining in 30 min [5] [%]
26 | O=C(NO)c1ccc(OCCN2CCC(CNC3CC3c3ccc(F)cc3)CC2)nc1 (stereo not shown) [Example 96, 6-(2-(4-(((2-(4-fluorophenyl)cyclopropyl)amino)methyl)piperidin-1-yl)ethoxy)-N-hydroxynicotinamide TFA Salt] |  |  | 22 | 93 | > 10000 | 89
27 | O=C(NO)c1csc(CCCN2CCC(CNC3CC3c3ccc(-c4ccc(F)cc4)cc3)CC2)n1 (stereo not shown) [Example 111, 2-(3-(4-(((2-(4′-fluoro-[1,1′-biphenyl]-4-yl)cyclopropyl)amino)methyl)piperidin-1-yl)propyl)-N-hydroxythiazole-4-carboxamide TFA Salt] |  |  | 22 | 95 | 3060 | 91
28 | Cc1noc(C)c1-c1ccc(C2CC2NCC2CCN(C(=O)/C=C/c3ccc(C(=O)NO)cc3)CC2)cc1 (stereo not shown) [Example 116, (E)-4-(3-(4-(((2-(4-(3,5-dimethylisoxazol-4-yl)phenyl)cyclopropyl)amino)methyl)piperidin-1-yl)-3-oxoprop-1-en-1-yl)-N-hydroxybenzamide TFA Salt] |  |  | 69 | 63 | 157 | 50
